From US9029415B2, “Cooling mixtures with an enhanced cooling effect of 5-methyl-2-(propane-2-yl)cyclohexyl-N-ethyloxamate” (Symrise AG, priority 2010, dated 2015)

Columns and labels:
[1] = system: skin (both cheeks) of test persons; test: In-vivo half-side cheek test of cooling intensity of O/W cream samples (20 panellists, scale 1-10, 30 minutes); set-up: species or system human; details: FIG. 1
Description: The aim of the human in vivo studies was to test the effect of the cooling mixture according to the invention in O/W formulations with regard to their cooling intensity. What was to be examined here was whether the cooling effect/cooling intensity of 5-methyl-2-(propane-2-yl)cyclohexyl-N-ethyloxamate will be enhanced in the combination of active substances according to the invention. Each individual test was carried out using 20 panellists under standardized conditions in a test institute. To this end, each test person spread two defined quantities of cream samples onto both cheeks at the same time. […] Upon application of the samples, the test persons evaluated the cooling intensities on a scale of 1-10 within a period of 30 minutes (1=weak; 10=strong). The studies were carried out as double blind studies, therefore the test institute received the formulations in an encoded form. In order to ensure test standardization, the following conditions were selected: • Controlled ventilation and temperature conditions in the room of the test persons • Use of a standardized test protocol • Detailed explanation of the test protocol • Samples were given to the test persons in uniform, clear containers • Samples were labeled with a three-digit code • A sample amount of 0.3 g of cream was applied onto each cheek • Samples were covered with a lid in order to avoid drying out of the samples • Test persons were instructed not to use any makeup on the day of the test and not to use any cosmetic products at least two hours before the test • The test persons evaluated the cooling effect of the two products on a scale of 1-10 (1=weak, 10=strong) at 32 identical points in time
The data obtained during the studies was examined with regard to any significant differences between the two samples. To this end, the data was initially examined for standard normal distribution. Provided the data met the criteria of a standard normal distribution, a pairwise t test was carried out. […] Where no normal distribution of the values was found, significance was determined via a non-parametric Wilcoxon. […]

skin = test: Cooling effect of the formulation examples as perceived by the test persons; assay type: in vivo, human
From the text: Provided the corresponding formulations also contained trans-4-tert. butylcyclohexanol, the cooling effect was even further enhanced compared to formulations without this compound.

SMILES: CCNC(=O)C(=O)O[C@@H]1C[C@H](C)CC[C@H]1C(C)C [MEO, (1R,2S,5R)-5-methyl-2-(propane-2-yl)cyclohexyl N ethyl oxamate]
- cooling effect (cooling intensity, scale 1-10) ([1]; O/W emulsion with 1.0 % MEO, 0.3 g cream per cheek, 20 panellists): marked cooling effect
- onset of the cooling effect ([1]; after application of the formulation onto the cheek): immediately upon application
- duration of the cooling effect ([1]; evaluation period 30 minutes): more than 30 minutes

SMILES: CCCCCCCCC(O)CO (centres unmarked) [1,2-decanediol]
- enhancement of cooling effect when 1,2-pentanediol is replaced (skin; 1,2-pentanediol replaced with 1,2-decanediol in an amount of one fifth of the pentanediol): applies analogously

SMILES: CCCCC(O)CO (centres unmarked) [1,2-hexanediol]
- enhancement of cooling effect when 1,2-pentanediol is replaced (skin; 1,2-pentanediol in the formulations replaced with 1,2-hexanediol at a ratio of 5:3): comparable effects are achieved
